Test results reported in patent US9850219B1, “Phenothiazine derivatives and methods of use thereof” (Acenda Pharma, Inc., priority 2016, dated 2017).

Legend:
A549 = experiment: Cytotoxicity, sulforhodamine B (SRB) assay, A549; type: cell-based, Human; settings: Homo sapiens, A549, 48 h, NA indicates no activity
Description: (§1) Human non-small cell lung cancer (NSCLC) cell lines (e.g., A549, H441GL and H1299), colon cancer cell lines (e.g., HCT116 and DLD1), breast cancer cell lines (e.g., MCF7 and MDA-MB-231), and pancreatic cancer cell lines (e.g., PANC-1 and SUIT-2) were used in cytotoxicity studies. […] A549 and H441GL are EGFR-wild type adenocarcinoma cell lines. H1299 is an EGFR-wild type large cell carcinoma cell line. HCT116 and DLD1 are metastatic colon cell lines. MCF7 is a hormone-responsive breast cancer cell line. MDA-MB-231 is a triple-negative breast cancer cell line. PANC-1 is a metastatic adenocarcinoma cell line. SUIT-2 is a pancreatic ductal adenocarcinoma cell line.
(§2) All cell lines were grown and maintained in RPMI medium supplemented with 10% fetal bovine serum (FBS, Invitrogen), 2 mM L-glutamine, 100 U/mL penicillin, and 100 μg/mL streptomycin. For cell the culture experiment, stock solution (10 mM) of each test compound was dissolved in dimethyl sulfoxide (DMSO; Sigma).
(§3) Cells were plated in 96-well plates at a density of 2000 cells per well in triplicate. The cells in each well were treated on the third day (to ensure proper plating efficiency and vitality) with different concentrations (0-50 μM) of each test compound for 48 h.
(§4) Cell viability was assessed using the sulforhodamine B (SRB) assay. The medium was discarded, and the adherent cells were fixed by 100 μL of cold 10% trichloroacetic acid (w/v) in each well for 1 h at 4° C. After fixation, cells were stained with 100 μL/well of 0.4% (w/v, in 1% acetic acid) SRB solution for 30 min at room temperature, and then washed 5 times with 1% acetic acid. After air-drying, 100 μL of 10 mM Tris base was added to each well and the absorbance was read at 530 nm. Cytotoxicity is expressed as the percent of cells in drug treated wells relative to number of cells in the solvent only control (set to 100%). Each experiment was performed independently in triplicate and cytotoxicity IC50 value of each test compound was calculated from cytotoxicity data obtained at various concentrations.

MDA-MB-231 = experiment: Cytotoxicity, sulforhodamine B (SRB) assay, MDA-MB-231; type: cell-based, human; settings: Homo sapiens, MDA-MB-231, Breast, 48 h
Description: (§5) Human non-small cell lung cancer (NSCLC) cell lines (e.g., A549, H441GL and H1299), colon cancer cell lines (e.g., HCT116 and DLD1), breast cancer cell lines (e.g., MCF7 and MDA-MB-231), and pancreatic cancer cell lines (e.g., PANC-1 and SUIT-2) were used in cytotoxicity studies. These NSCLC cell lines have intrinsic resistance to epidermal growth factor receptor (EGFR) inhibitors, e.g., gefitinib. A549 and H441GL are EGFR-wild type adenocarcinoma cell lines. H1299 is an EGFR-wild type large cell carcinoma cell line. HCT116 and DLD1 are metastatic colon cell lines. MCF7 is a hormone-responsive breast cancer cell line. MDA-MB-231 is a triple-negative breast cancer cell line. PANC-1 is a metastatic adenocarcinoma cell line. SUIT-2 is a pancreatic ductal adenocarcinoma cell line.
as §2, §3, §4

H1299 = experiment: Cytotoxicity, sulforhodamine B (SRB) assay, H1299; type: cell-based; settings: Homo sapiens, NCI-H1299, H1299, 48 h
Description: as §1, §2, §3, §4

lung cancer cells = experiment: Cytotoxicity SRB assay, summary of Table 2; type: cell-based, Human; settings: summary in words of Table 2
Description: as §5, §3, §4
NA indicates no activity.

HCT116 = experiment: Cytotoxicity, sulforhodamine B (SRB) assay, HCT116; type: cell-based, human; settings: Homo sapiens, HCT-116, HCT116, Colon, 48 h
Description: as §5, §2, §3, §4

H441GL = experiment: Cytotoxicity, sulforhodamine B (SRB) assay, H441GL; type: cell-based, Human; settings: Homo sapiens, 48 h, NA indicates no activity
Description: as §1, §2, §3, §4

PANC-1 = experiment: Cytotoxicity, sulforhodamine B (SRB) assay, PANC-1; type: cell-based, human; settings: Homo sapiens, PANC-1, Pancreas, 48 h, NA = no activity
Description: as §5, §2, §3, §4

DLD1 = experiment: Cytotoxicity, sulforhodamine B (SRB) assay, DLD1; type: cell-based, human; settings: Homo sapiens, DLD-1, DLD1, Colon, 48 h
Description: as §5, §2, §3, §4

MCF7 = experiment: Cytotoxicity, sulforhodamine B (SRB) assay, MCF7; type: cell-based, human; settings: Homo sapiens, MCF7, Breast, 48 h
Description: as §5, §2, §3, §4

SUIT-2 = experiment: Cytotoxicity, sulforhodamine B (SRB) assay, SUIT-2; type: cell-based, human; settings: Homo sapiens, SUIT-2, Pancreas, 48 h
Description: as §5, §2, §3, §4

H441GL cells = experiment: Study 2: tumor size in mouse lung cancer model; type: in vivo, NOD/SCID mice; settings: Study 2, 0.0127 mmol/kg daily, i.p.; for Tumor Size [Fold Change from Week 3 (Mean ± SD, n = 4)] Week 3: Week 3 (baseline, start of treatment)
Method: H441GL cells (1×10^6 cells in 100 μL phosphate-buffered saline/injection) were subcutaneously injected into the right flank of NOD/SCID mice (female, 4-6 weeks old). Mice were allowed 2 weeks for tumor growth. On the first day of Week 3 post injection, tumor-bearing mice were randomly divided into control group (DMSO vehicle, intraperitoneal (i.p.) injection) and test compound treatment groups (5 mg/kg/day, 5 days/week, i.p. injection). Over the period of 10 weeks, tumorigenesis in both groups was measured using a caliper on a weekly basis. The change in tumor size was expressed as in fold change from Week 3. In this study body weight of each mouse was also recorded at the end of each study week.
In this study, the daily dose was 0.0127 mmol/kg instead of 5 mg/kg.

NSCLC cells = settings: from WO2015/184794, WO2013/060305, Yeh et al. 2012; cited from earlier work
[1] = test system: CSCs in human NSCLC cell lines; settings: from US 2014/0294994, WO2013/060305, WO2015/184794; cited from earlier work

SMILES	IC50 (A549) [µM]	IC50 (MDA-MB-231) [µM]	IC50 (H1299) [µM]	inhibition of cell proliferation of lung cancer cells (lung cancer cells)	IC50 (HCT116) [µM]	IC50 (H441GL) [µM]	IC50 (PANC-1) [µM]	IC50 (DLD1) [µM]	IC50 (MCF7) [µM]	IC50 (SUIT-2) [µM]	Tumor Size [Fold Change from Week 3 (Mean ± SD, n = 4)] Week 3 (H441GL cells) [Fold Change]	Tumor Size [Fold Change from Week 3 (Mean ± SD, n = 4)] Week 9 (H441GL cells) [Fold Change]	Tumor Size [Fold Change from Week 3 (Mean ± SD, n = 4)] Week 13 (H441GL cells) [Fold Change]	cytotoxicity to NSCLC cells (NSCLC cells)	anti-tumor effects, growth of CSCs in human NSCLC cell lines [1]
COCC(COCC(COCC(COCCOCCOCCN1CCN(CCCN2c3ccccc3Sc3ccc(C(F)(F)F)cc32)CC1)OC)OC)OC (stereo not drawn) [Compound 25-1b, NDT-[CH2CH2O]n—[CH2CH(OCH3)CH2O]3—CH3]	11.4	11.2	6.9	inhibit cell proliferation	7.2	8.8	10	11.7	12.2	10.9	1 ± 0	10.2 ± 1.4	25.0 ± 4.4	–	–
COCC(COCC(COCC(COCCOCCOCCOCCOCCOCCOCCOCCOCCN1CCN(CCCN2c3ccccc3Sc3ccc(C(F)(F)F)cc32)CC1)OC)OC)OC (stereo not drawn) [Compound 25-2b, NDT-[CH2CH2O]n—[CH2CH(OCH3)CH2O]3—CH3]	14	13.1	13.9	inhibit cell proliferation	11.4	11.4	2.9	15.3	10.9	13	1 ± 0	13.0 ± 1.6	35.7 ± 5.3	–	–
COCCOCCOCCOCC(COCC(COCC(CN1CCN(CCCN2c3ccccc3Sc3ccc(Cl)cc32)CC1)OC)OC)OC (stereo not drawn) [Compound 26-1a, NDP-[CH2CH(OCH3)CH2O]3—[CH2CH2O]n—CH3]	11.2	13.5	24.9	inhibit cell proliferation	11.2	12.1	15.8	22.3	14.6	25.8	–	–	–	–	–
COCCOCCOCCOCCOCCOCCOCCOCCOCCOCC(COCC(COCC(CN1CCN(CCCN2c3ccccc3Sc3ccc(Cl)cc32)CC1)OC)OC)OC (stereo not drawn) [Compound 26-2a, NDP-[CH2CH(OCH3)CH2O]3—[CH2CH2O]n—CH3]	23.8	16.3	42.6	inhibit cell proliferation	13.3	25.4	27.9	32.8	24.2	26.9	–	–	–	–	–
COCCOCCOCCOCCOCCOCCOCCOCCOCCOCC(COCC(COCC(CN1CCN(CCCN2c3ccccc3Sc3ccc(C(F)(F)F)cc32)CC1)OC)OC)OC (stereo not drawn) [Compound 26-2b, NDT-[CH2CH(OCH3)CH2O]3—[CH2CH2O]n—CH3]	15.6	12.5	25.3	inhibit cell proliferation	8.9	12.1	12.9	19.2	10	17.2	–	–	–	–	–
OCC(O)COCC(O)COCC(O)CN1CCN(CCCN2c3ccccc3Sc3ccc(Cl)cc32)CC1 (stereo not drawn) [Compound 33a, NDP-[CH2CH(OH)CH2O]3—H]	35.2	24.2	28.4	inhibit cell proliferation	20.2	25	30.2	35.2	26	34	–	–	–	–	–
OCC(O)COCC(O)COCC(O)CN1CCN(CCCN2c3ccccc3Sc3ccc(C(F)(F)F)cc32)CC1 (stereo not drawn) [Compound 33b, NDT-[CH2CH(OH)CH2O]3—H]	19.8	14.8	20.8	inhibit cell proliferation	14.9	17.9	23.5	26.4	13.8	25.7	–	–	–	–	–
Clc1ccc2c(c1)N(CCCN1CCNCC1)c1ccccc1S2 [NDP, 10-[3-(1-Piperazinyl)propyl]-2-chloro-10H-phenothiazine, reference compound]	9.7	–	6.6	inhibit cell proliferation	–	8.4	–	–	–	–	–	–	–	shown cytotoxicity	–
CN1CCN(CCCN2c3ccccc3Sc3ccc(Cl)cc32)CC1 [PCP, prochlorperazine]	–	–	–	inhibit cell proliferation	–	–	–	–	–	–	–	–	–	shown cytotoxicity	inhibiting the growth of CSCs
CN1CCN(CCCN2c3ccccc3Sc3ccc(C(F)(F)F)cc32)CC1 [TFP, trifluoperazine, reference compound]	23.5	–	28.7	inhibit cell proliferation	–	21.6	–	–	–	–	–	–	–	shown cytotoxicity	inhibiting the growth of CSCs
